{"source": "ChEMBL document CHEMBL3507680", "about": "“University of Dundee, Gates Library screen for HepG2 cell viability”", "experiment": "Human HepG2 cell viability assay in 384 well format", "format": "toxicity, cell-based", "parameters": "dose 125 nL, time 70.5 hour; cytotoxicity at 70.5 h: concentration not given beside the values", "details": "HepG2 cells, read-out: Inhibition"}
{"smiles": "Cc1cc(-c2cnc(N3CCCC3)nc2-c2ccc(C)s2)on1", "values": [{"measurement": "cytotoxicity at 70.5 h", "result": -6.38, "unit": "%"}]}
{"smiles": "COCCC(=O)N1CCCC1c1csc(Nc2ccccn2)n1", "note": "(stereo not given)", "values": [{"measurement": "cytotoxicity at 70.5 h", "result": 21.7, "unit": "%"}]}
{"smiles": "CNc1ccc(CC2CCCN(C(=O)c3cccc(C)n3)C2)nn1", "note": "(stereo not given)", "values": [{"measurement": "cytotoxicity at 70.5 h", "result": -0.376, "unit": "%"}]}
{"smiles": "COCC(=O)N1CCCC(c2cccc(-n3ccnc3)n2)C1", "note": "(stereo not given)", "values": [{"measurement": "cytotoxicity at 70.5 h", "result": 4.64, "unit": "%"}]}
{"smiles": "COc1ccc(C)cc1CC(=O)N1CC[C@@]2(CCCO2)[C@@H](O)C1", "values": [{"measurement": "cytotoxicity at 70.5 h", "result": -5.66, "unit": "%"}]}
{"smiles": "CO[C@H]1CN(Cc2cc(F)ccc2F)CC[C@@]12CCCO2", "values": [{"measurement": "cytotoxicity at 70.5 h", "result": -2.25, "unit": "%"}]}
{"smiles": "Cc1cnccc1CN1CC[C@H](Oc2cccc(F)c2)[C@@](C)(O)C1", "values": [{"measurement": "cytotoxicity at 70.5 h", "result": 0.441, "unit": "%"}]}
{"smiles": "C[C@]1(O)CN(Cc2cccc(C(=O)O)c2)CC[C@@H]1Oc1cccc(F)c1", "values": [{"measurement": "cytotoxicity at 70.5 h", "result": -4.99, "unit": "%"}]}
{"smiles": "CN(C)c1ccc(CC2COCCN(Cc3nccn3C)C2)nn1", "note": "(stereo not given)", "values": [{"measurement": "cytotoxicity at 70.5 h", "result": -0.733, "unit": "%"}]}
{"smiles": "NC(=O)CN1CCC(c2cc(C(F)(F)F)n3ccnc3n2)CC1", "values": [{"measurement": "cytotoxicity at 70.5 h", "result": -3.15, "unit": "%"}]}
{"smiles": "Cc1cccc(Nc2cc(C)nc(C3CCCCN3CC(N)=O)n2)n1", "note": "(stereo not given)", "values": [{"measurement": "cytotoxicity at 70.5 h", "result": -4.2, "unit": "%"}]}
{"smiles": "CCn1ccc(C(=O)N2CCOC(c3nc(-c4cccs4)no3)C2)n1", "note": "(stereo not given)", "values": [{"measurement": "cytotoxicity at 70.5 h", "result": -4.33, "unit": "%"}]}
{"smiles": "COCC(=O)N1CCCC1c1nccnc1Nc1ncccn1", "note": "(stereo not given)", "values": [{"measurement": "cytotoxicity at 70.5 h", "result": -3.81, "unit": "%"}]}
{"smiles": "Cc1c[nH]nc1C1CCCN(C(=O)c2c(C)noc2C)C1", "note": "(stereo not given)", "values": [{"measurement": "cytotoxicity at 70.5 h", "result": -1.16, "unit": "%"}]}
{"smiles": "Cn1nccc1CCC(=O)N1CCCC(Cc2cccnc2)C1", "note": "(stereo not given)", "values": [{"measurement": "cytotoxicity at 70.5 h", "result": -5.31, "unit": "%"}]}
{"smiles": "CNc1cncc(C2CCCN2Cc2ccn(C)n2)n1", "note": "(stereo not given)", "values": [{"measurement": "cytotoxicity at 70.5 h", "result": -1.7, "unit": "%"}]}
{"smiles": "Cc1ncsc1C(=O)N1CCC(O)(CN2CCc3ccccc3C2)C1", "note": "(stereo not given)", "values": [{"measurement": "cytotoxicity at 70.5 h", "result": 10.1, "unit": "%"}]}
{"smiles": "Cc1ccc(C(=O)N2CCC(O)(CN3CCc4ccccc4C3)C2)s1", "note": "(stereo not given)", "values": [{"measurement": "cytotoxicity at 70.5 h", "result": -2.78, "unit": "%"}]}
{"smiles": "CCc1nccn1-c1cncc(C2CCCN2Cc2ccccn2)n1", "note": "(stereo not given)", "values": [{"measurement": "cytotoxicity at 70.5 h", "result": -7.66, "unit": "%"}]}
{"smiles": "Cc1ccn(CCC(=O)N2CCCC(Cc3cccnc3)C2)n1", "note": "(stereo not given)", "values": [{"measurement": "cytotoxicity at 70.5 h", "result": -5.66, "unit": "%"}]}
{"smiles": "Cc1ncsc1-c1nnc(C2CCN(Cc3ccccc3)CC2)o1", "values": [{"measurement": "cytotoxicity at 70.5 h", "result": -1.36, "unit": "%"}]}
{"smiles": "COCC(=O)N1CCCC1c1cc(N2CCN(C(C)=O)CC2)cc(C)n1", "note": "(stereo not given)", "values": [{"measurement": "cytotoxicity at 70.5 h", "result": 22.7, "unit": "%"}]}
{"smiles": "NC[C@H]1CC[C@H](C(NC(=O)C2CC2)c2ccccn2)CC1", "note": "(stereo not given in full)", "values": [{"measurement": "cytotoxicity at 70.5 h", "result": -6.56, "unit": "%"}]}
{"smiles": "CC(=O)N1CCCC1c1cc(N2CCN(CC3CC3)CC2)cc(C)n1", "note": "(stereo not given)", "values": [{"measurement": "cytotoxicity at 70.5 h", "result": -1.76, "unit": "%"}]}
{"smiles": "CC(=O)N1CCCCC1c1nc2c(c(NC3CCCC3)n1)CN(C)CC2", "note": "(stereo not given)", "values": [{"measurement": "cytotoxicity at 70.5 h", "result": 17, "unit": "%"}]}
{"smiles": "COc1cccc(C(=O)N2CCCC2c2ncc3c(n2)CCN(C)C3)c1", "note": "(stereo not given)", "values": [{"measurement": "cytotoxicity at 70.5 h", "result": -0.392, "unit": "%"}]}
{"smiles": "CCCC(=O)N1CCc2nc3cc(OC)c(OC)cc3c(=O)n2CC1", "values": [{"measurement": "cytotoxicity at 70.5 h", "result": -5.67, "unit": "%"}]}
{"smiles": "CC(=O)NC[C@]1(O)CCN(C(=O)c2ccc(F)c(Cl)c2)C[C@H]1O", "values": [{"measurement": "cytotoxicity at 70.5 h", "result": -6.22, "unit": "%"}]}
{"smiles": "Cc1ccsc1CN(CCCN(C)C)Cc1ccccn1", "values": [{"measurement": "cytotoxicity at 70.5 h", "result": -3.09, "unit": "%"}]}
{"smiles": "Cc1ccsc1C(=O)N1CCC2(CC(N(C)c3ccncn3)C2)C1", "note": "(stereo not given)", "values": [{"measurement": "cytotoxicity at 70.5 h", "result": -4.77, "unit": "%"}]}
{"smiles": "Cc1csc(C(=O)N2CCC3(CC(N(C)c4ccncn4)C3)C2)c1", "note": "(stereo not given)", "values": [{"measurement": "cytotoxicity at 70.5 h", "result": -5.37, "unit": "%"}]}
{"smiles": "Nc1cc(CCC2CN(Cc3ccc4c(c3)OCCO4)CCO2)ccn1", "note": "(stereo not given)", "values": [{"measurement": "cytotoxicity at 70.5 h", "result": 0.977, "unit": "%"}]}
{"smiles": "Nc1cc(CCC2CN(Cc3ccc4cc[nH]c4c3)CCO2)ccn1", "note": "(stereo not given)", "values": [{"measurement": "cytotoxicity at 70.5 h", "result": 20.8, "unit": "%"}]}
{"smiles": "CN(c1ccncn1)C1CC2(CCN(C(=O)Cc3cccs3)C2)C1", "note": "(stereo not given)", "values": [{"measurement": "cytotoxicity at 70.5 h", "result": -6.91, "unit": "%"}]}
{"smiles": "Cc1csc(C(=O)N2CC[C@H](Oc3cccnc3C)[C@@H](O)CC2)c1", "values": [{"measurement": "cytotoxicity at 70.5 h", "result": 14, "unit": "%"}]}
{"smiles": "Cn1ccc(C(=O)N2CCC(Cc3cccc4ncccc34)C2)n1", "note": "(stereo not given)", "values": [{"measurement": "cytotoxicity at 70.5 h", "result": -1.84, "unit": "%"}]}
{"smiles": "NCC(=O)N1CCCC1c1nccnc1Nc1ncccn1", "note": "(stereo not given)", "values": [{"measurement": "cytotoxicity at 70.5 h", "result": -1.95, "unit": "%"}]}
{"smiles": "COc1ncc(C2(O)CCN(Cc3ccc(F)c(F)c3)CC2)c(OC)n1", "values": [{"measurement": "cytotoxicity at 70.5 h", "result": -3.5, "unit": "%"}]}
{"smiles": "COc1ccc(-c2ccc(C3CNCCO3)nc2)cc1", "note": "(stereo not given)", "values": [{"measurement": "cytotoxicity at 70.5 h", "result": -5.61, "unit": "%"}]}
{"smiles": "COc1ccccc1CN(Cc1cccnc1)CC1CCCO1", "note": "(stereo not given)", "values": [{"measurement": "cytotoxicity at 70.5 h", "result": -1.02, "unit": "%"}]}
{"smiles": "CN(C)CCN(C(=O)Cc1ccc2c(c1)OCCO2)C1CCN(C)CC1", "values": [{"measurement": "cytotoxicity at 70.5 h", "result": 2.11, "unit": "%"}]}
{"smiles": "CCCN(Cc1cccnc1)C1CC(C)(C)NC(C)(C)C1", "values": [{"measurement": "cytotoxicity at 70.5 h", "result": -3.34, "unit": "%"}]}
{"smiles": "CC1(C)CC(N(Cc2cccnc2)Cc2cccc(F)c2)CC(C)(C)N1", "values": [{"measurement": "cytotoxicity at 70.5 h", "result": 2.01, "unit": "%"}]}
{"smiles": "CCCOc1ccccc1CN[C@@H]1CCC[C@H]1Cc1cc(C)no1", "values": [{"measurement": "cytotoxicity at 70.5 h", "result": 23.6, "unit": "%"}]}
{"smiles": "Cc1cc(C[C@@H]2CCC[C@H]2NCc2cc(F)ccc2F)on1", "values": [{"measurement": "cytotoxicity at 70.5 h", "result": -1.78, "unit": "%"}]}
